This note sets out measurements from US20250313546A1, “NUCLEIC ACID BINDERS” (UNIVERSITY OF STRATHCLYDE, priority 2022, published 2025).

In assay [1] the test system is Enterococcus faecalis (ATCC 51299). Kind of assay: Antibacterial MIC, broth microdilution (CLSI). The assay is classed as cell-based. The following applies: for MIC80: Enterococcus faecalis, ATCC51299, read-out: MIC80 E. faecalis. A general note: In broth dilution the organism is exposed to a series of concentrations in liquid medium.
The next assay has as its system T. vaginalis. Kind of assay: Trichomonas resorufin assay. The note with it: for IC50: Trichomonas vaginalis, read-out: IC50 T. vaginalis. The assay is classed as cell-based.
Assay [2] deals with Escherichia coli (ATCC 25922). Kind of assay: Antibacterial MIC, broth microdilution (CLSI). The following applies: Escherichia coli, ATCC25922; read-out: MIC80 E. coli. The assay is classed as cell-based.
The subject of assay [3] is Genomic double stranded DNA (salmon). Put plainly: Fluorescence intercalator displacement (FID) assay, SYBR-safe probe. The note with it: 20 μM compound, 30° C., lower % = stronger binding. As for the experimental part: (§1) The ability of compounds of the invention to bind to DNA and RNA was assessed using a fluorescence intercalator displacement assay. Genomic double stranded DNA (salmon) or PolyAU double stranded RNA is treated with probe molecule (Sybr-Safe) that increases its fluorescence upon binding to nucleic acids.
(§2) polyAU RNA (Polyadenylic acid—Polyuridylic acid sodium salt, double-stranded homopolymer, P1537, Merck) or genomic DNA (Deoxyribonucleic acid sodium salt from salmon testes, D1626, Merck) was dissolved in 1 mM pH 7.4 phosphate buffer (containing 0.27 mM potassium chloride, 13.7 mM sodium chloride) to a concentration of 1 mg/mL in, SybrSafe (SYBR® Safe DNA Gel Stain, ×10,000 in DMSO, S33102 Invitrogen) was used as supplied by the manufacturer in DMSO, and compounds of the invention were prepared as 10 mM stocks in DMSO. These stock solutions were diluted appropriately with each other and 1 mM phosphate buffer to give test solutions comprised of 20 μM compound of the invention, 12500-fold dilution of SybrSafe and 3.76 ng/mL RNA/DNA. Control solutions of RNA/DNA and SybrSafe, RNA/DNA, and SybrSafe at these concentrations were also prepared. Test and control solutions were heated to 30° C. and the fluorescence of each solution was measured using the SYBER filter setting of a StepOnePlus using melt analysis mode (StepOne Software v2.3). The reduction of fluorescence due to the binding of the compound of the invention to the RNA/DNA was calculated as a normalised percentage based on the fluorescence measured due to the control with SybrSafe and RNA/DNA as maximum and the control with only SybrSafe as minimum.
(§3) A reduction in normalised % is indicative of probe displacement and thus strong nucleic acid binding.

The test system of assay [4] is PolyAU double stranded RNA. Described as above. The note with it: 20 μM compound, 30° C., lower % = stronger binding. As for the experimental part: as §1, §2, §3
The test system of assay [5] is Staphylococcus aureus (ATCC 43300). Put plainly: Antibacterial MIC, broth microdilution (CLSI). The following applies: for S. aureus Selectivity Indices, Group: SI, IC50 (μM)/MIC80 (μM), HEK293 cytotoxicity; for MIC80: Staphylococcus aureus, ATCC43300, read-out: MIC80 S. aureus. The assay is classed as cell-based.
In assay [6] the test system is A. fumigatus A1160 (MFIG001). The note with it: Aspergillus fumigatus, read-out: MIC99 A. fumigatus A1160.
Assay [7] has as its system Candida glabrata (ACPF3309). The note with it: Nakaseomyces glabratus, read-out: MIC99 Candida glabrata.

The term MIC80 denotes an inhibitory concentration at the 80% level, which refers to growth in some studies and to a panel of isolates in others. For orientation: IC50 means the concentration at which inhibition is half-maximal. The term MIC99 denotes the lowest concentration that inhibits either 99% of growth or 99% of the strains tested, depending on the study.

≈ marks a conversion by molar mass, not a printed value. A value given as a limit tells only on which side of the number the result lay.

For `COc1cccc(/C=C/c2ccc(C(=O)Nc3cc(C(=O)Nc4cc(C(=O)NCCC(=N)NC(C)C)n(C)c4)n(C)c3)cc2)c1` [Ia19, (E)-N-(3-imino-3-(isopropylamino)propyl)-4-(4-(4-(3-methoxystyryl)benzamido)-1-methyl-1H-pyrrole-2-carboxamido)-1-methyl-1H-pyrrole-2-carboxamide], the values for the MIC80 in assay [1], in assay [2] and in assay [5] were 5 to 25 µM (≈ 3.05 to 15.2 µg/mL), 25 to 100 µM (≈ 15.2 to 61 µg/mL) and 5 to 25 µM (≈ 3.05 to 15.2 µg/mL), respectively. The 50% inhibitory concentration (IC50) with T. vaginalis is 5 to 50 µM. Besides, the “% Normalised Fluorescence with gDNA” value in assay [3] is reported as 10%. Besides, in assay [4], the “% Normalised Fluorescence with polyAU RNA” value amounted to 8%. In addition, the “S. aureus Selectivity Indices, Group” value in assay [5] (Alkyl Amidines and NH Pyrroles) is reported as “B (Group B: 3 < SI <= 5)”.

In the case of `[H]/N=C(\CCNC(=O)c1cc(NC(=O)c2cc(NC(=O)c3ccc(C=Cc4ccc5nonc5c4)cc3)cn2C)cn1C)NC` [Ia3, (E)-4-(4-(2-(benzo[c][1,2,5]oxadiazol-5-yl)vinyl)benzamido)-N-(5-((3-imino-3-(methylamino)propyl)carbamoyl)-1-methyl-1H-pyrrol-3-yl)-1-methyl-1H-pyrrole-2-carboxamide], the MIC99 in assay [6] was less than 5 µg/mL. For the same compound, the MIC80 was greater than 100 µM in assay [2] and less than 5 µM in assay [5]. Also, the “% Normalised Fluorescence with gDNA” value in assay [3] worked out at 13%. For the same compound, the “% Normalised Fluorescence with polyAU RNA” value in assay [4] worked out at 38%.

As for `Cn1cc(NC(=O)c2cc(NC(=O)c3ccc(/C=C/c4cnc5ccccc5c4)cc3)cn2C)cc1C(=O)NCCOCCOCCO` [IVa7, (E)-N-(2-(2-(2-hydroxyethoxy)ethoxy)ethyl)-1-methyl-4-(1-methyl-4-(4-(2-(quinolin-3-yl)vinyl)benzamido)-1H-pyrrole-2-carboxamido)-1H-pyrrole-2-carboxamide], the MIC80 in assay [1] was greater than 100 µM; in assay [2], greater than 100 µM; in assay [5], 5 to 25 µM (≈ 3.25 to 16.3 µg/mL). In addition, the IC50 with T. vaginalis fell in the range of 5 to 50 µM. In addition, in assay [3], the “% Normalised Fluorescence with gDNA” value was 65%. In addition, the “% Normalised Fluorescence with polyAU RNA” value in assay [4] is on record as 92%.

As to `C/N=C(/CCNC(=O)c1cc(NC(=O)c2cc(NC(=O)c3ccc(/C=C/c4ccc(C(F)(F)F)cc4)cc3)cn2C)cn1C)NC` [Ia5, 1-methyl-4-(1-methyl-4-(4-((E)-4-(trifluoromethyl)styryl)benzamido)-1H-pyrrole-2-carboxamido)-N—((Z)-3-(methylamino)-3-(methylimino)propyl)-1H-pyrrole-2-carboxamide], in assay [6], the MIC99 lay in the range of 25 to 50 µg/mL (≈ 39.5 to 78.9 µM). In addition, the MIC80 is greater than 100 µM in assay [2] and less than 5 µM in assay [5]. Besides, the “% Normalised Fluorescence with gDNA” value in assay [3] turned out to be 21%. Also, the “% Normalised Fluorescence with polyAU RNA” value in assay [4] is listed as 12%.

As for `C/N=C(/CCNC(=O)c1cc(NC(=O)c2cc(NC(=O)c3ccc(/C=C/c4ccc5ccccc5c4)cc3)cn2C)cn1C)NC` [Ia7, 1-methyl-4-(1-methyl-4-(4-((E)-2-(naphthalen-2-yl)vinyl)benzamido)-1H-pyrrole-2-carboxamido)-N—((Z)-3-(methylamino)-3-(methylimino)propyl)-1H-pyrrole-2-carboxamide], the MIC99 in assay [6] lay within 25 to 50 µg/mL (≈ 40.6 to 81.2 µM). The MIC80 in assay [2] is greater than 100 µM; in assay [5], less than 5 µM. In addition, the “% Normalised Fluorescence with gDNA” value in assay [3] is on record as 10%. Also, the “% Normalised Fluorescence with polyAU RNA” value in assay [4] is 24%.

Turning to `COc1cccc(/C=C/c2ccc(C(=O)Nc3cc(C(=O)Nc4cc(C(=O)NCCC(=N)NC(C)C)n(C)c4)n(C)c3)cn2)c1` [Ia23, (E)-N-(5-((5-((3-imino-3-(isopropylamino)propyl)carbamoyl)-1-methyl-1H-pyrrol-3-yl)carbamoyl)-1-methyl-1H-pyrrol-3-yl)-6-(3-methoxystyryl)nicotinamide], the MIC80 in assay [1] was greater than 100 µM; in assay [2] it was greater than 100 µM; in assay [5], 25 to 100 µM (≈ 15.3 to 61.1 µg/mL). For the same compound, in the assay with T. vaginalis, the IC50 was 5 to 50 µM. For the same compound, the “% Normalised Fluorescence with gDNA” value in assay [3] turned out to be 41%. Also, in assay [4], the “% Normalised Fluorescence with polyAU RNA” value turned out to be 25%.

For `[H]/N=C(\CCNC(=O)c1cc(NC(=O)c2cc(NC(=O)c3ccc(C=Cc4ccc5nonc5c4)cc3)cn2C)cn1C)NCCCN(C)C` [Ia46, (E)-4-(4-(2-(benzo[c][1,2,5]oxadiazol-5-yl)vinyl)benzamido)-N-(5-((3-((3-(dimethylamino)propyl)amino)-3-iminopropyl)carbamoyl)-1-methyl-1H-pyrrol-3-yl)-1-methyl-1H-pyrrole-2-carboxamide], the MIC80 in assay [1] was greater than 100 µM; in assay [2] it was greater than 100 µM; in assay [5], 25 to 100 µM (≈ 16.6 to 66.5 µg/mL). In the assay with T. vaginalis, the half-maximal inhibitory concentration (IC50) fell in the range of 5 to 50 µM. Also, the “% Normalised Fluorescence with gDNA” value in assay [3] is 10%. Moreover, in assay [4], the “% Normalised Fluorescence with polyAU RNA” value is 2%.

As to `CC(C)NC(=O)c1cc(NC(=O)c2cc(NC(=O)c3ccc(/C=C/c4cnc5ccccc5c4)cc3)cn2C)cn1C` [IVa4, (E)-N-isopropyl-1-methyl-4-(1-methyl-4-(4-(2-(quinolin-3-yl)vinyl)benzamido)-1H-pyrrole-2-carboxamido)-1H-pyrrole-2-carboxamide], the values for the MIC80 in assay [1], in assay [2] and in assay [5] were 25 to 100 µM (≈ 14 to 56.1 µg/mL), greater than 100 µM and less than 5 µM, respectively. Also, the IC50 in the assay with T. vaginalis lay within 5 to 50 µM. In assay [3], the “% Normalised Fluorescence with gDNA” value was 15%. The “% Normalised Fluorescence with polyAU RNA” value in assay [4] is listed as 81%.

`CCCCCC[N+](C)(C)CCNC(=O)c1cc(NC(=O)c2cc(NC(=O)c3ccc(/C=C/c4cnc5ccccc5c4)cc3)cn2C)cn1C` [Ic5, (E)-N,N-dimethyl-N-(2-(1-methyl-4-(1-methyl-4-(4-(2-(quinolin-3-yl)vinyl)benzamido)-1H-pyrrole-2-carboxamido)-1H-pyrrole-2-carboxamido)ethyl)hexan-1-aminium]: the results for the MIC99 in assay [7] and in assay [6] were 5 to 25 µg/mL and greater than 50 µg/mL, respectively. The MIC80 in assay [1] is 5 to 25 µM; in assay [2], greater than 100 µM; in assay [5], less than 5 µM. The “T. vaginalis Selectivity Indices, Group” value in the assay with T. vaginalis (SI, IC50 (μM)/IC50 (μM), HEK293 cytotoxicity, Quaternary ammoniums) is listed as “B (Group B: 0.8 < SI <= 1.5)”. In addition, the concentration for half-maximal inhibition (IC50) with T. vaginalis lay in the range of 1 to 5 µM. In assay [5] (Quaternary ammoniums), the “S. aureus Selectivity Indices, Group” value is given as “C (Group C: 5 < SI <= 10)”.

Consider `CCCCNC(=O)c1cc(NC(=O)c2cc(NC(=O)c3ccc(/C=C/c4cnc5ccccc5c4)cc3)cn2C)cn1C` [IVa5, (E)-N-butyl-1-methyl-4-(1-methyl-4-(4-(2-(quinolin-3-yl)vinyl)benzamido)-1H-pyrrole-2-carboxamido)-1H-pyrrole-2-carboxamide], for which the MIC80 in assay [1] was less than 5 µM; in assay [2] it was greater than 100 µM; in assay [5], less than 5 µM. Further, the “E. faecalis Selectivity Indices, Group” value in assay [1] (SI, IC50 (μM)/MIC80 (μM), HEK293 cytotoxicity, Amides) is reported as “C (Group: C, 1.5 < SI <= 5)”. The “E. faecalis Selectivity Index (SI)” value in assay [1] (SI, IC50 (μM)/MIC80 (μM), HEK293 cytotoxicity, numeric value) is reported as 2. In addition, in the assay on T. vaginalis (SI, IC50 (μM)/IC50 (μM), HEK293 cytotoxicity, Amides), the “T. vaginalis Selectivity Indices, Group” value is recorded as “C (Group C: SI > 0.5)”. Also, the “T. vaginalis Selectivity Index (SI)” value in the assay with T. vaginalis (SI, IC50 (μM)/IC50 (μM), HEK293 cytotoxicity, numeric value) amounted to 2. Besides, the IC50 with T. vaginalis was 1 to 5 µM. Besides, the “% Normalised Fluorescence with gDNA” value in assay [3] is 51%. In assay [4], the “% Normalised Fluorescence with polyAU RNA” value turned out to be 12%. Besides, the “S. aureus Selectivity Indices, Group” value in assay [5] (Amides) is reported as “B (Group B: 1.4 < SI <= 3)”.
